We go through one molecule from ChEMBL document CHEMBL6096692, “Discovery of 2(1H)-Quinoxalinone Derivatives as Potent and Selective MAT2A Inhibitors for the Treatment of MTAP-Deficient Cancers” (J Med Chem, 2025).

SMILES strings stand for the structures. pIC50: −log10 of the molar value. Values after ≈ are worked out from the molar mass of the structure shown. Active and inactive are the calls of the source. The rule behind the calls is not given here.

The test system of one data set is MDA-MB-231. Kind of data set: Antiproliferative activity against MTAP null human MDA-MB-231 cells assessed as inhibition of cell viability measured for 96 hrs by SRB assay. In kind it is functional, cell-based.
Another data set relates to NCI-H1437. Put plainly: Antiproliferative activity against MTAP null human NCI-H1437 cells assessed as inhibition of cell viability measured for 96 hrs by SRB assay. The class given is functional, cell-based.
Data set [1] in a line: Cmax in male ICR mouse at 10 mg/kg, po measured upto 36 hrs by LC-MS/MS analysis. The class given is ADME, organism-based. The following applies: in vivo.
The nature of data set [2]: Selectivity index, ratio of IC50 for antiproliferative activity against MTAP knockout human SF-126 cells to IC50 for antiproliferative activity against human SF-126 cells harboring wild type MTAP. In kind it is functional.
Data set [3] is described as follows: Cmax in male ICR mouse at 1 mg/kg, iv measured upto 36 hrs by LC-MS/MS analysis. The class given is ADME, organism-based. The following applies: in vivo.
The test system of data set [4] is Daoy. Kind of data set: Antitumor activity against human Daoy cells xenografted in mouse assessed as tumor growth inhibition at 30 mg/kg, po measured after 28 days. In kind it is functional, organism-based. The note with it: time 28.0 day.
The test system of data set [5] is Daoy. Put plainly: Antitumor activity against human Daoy cells xenografted in mouse assessed as reduction in SDMA level in tumor at 30 mg/kg, po measured after 28 days. The class given is functional, organism-based. The following applies: time 28.0 day.
Data set [6] has as its system SF-126. Kind of data set: Induction of DNA damage in MTAP knockout human SF-126 cells assessed as increase in gammaH2AX level at 0.1 to 10 uM measured for 96 hrs by immunofluorescence analysis. The class given is functional, cell-based. The note with it: dose 0.1-10 µM.
The nature of data set [7]: AUC (0 to t) in male ICR mouse at 10 mg/kg, po measured upto 36 hrs by LC-MS/MS analysis. In kind it is ADME, organism-based. The note with it: in vivo.
The test system of data set [8] is B16-F10. Kind of data set: Antitumor activity against mouse B16-F10 cells harboring wild type MTAP implanted in mouse assessed as reduction in tumor volume at 30 to 60 mg/kg, po administered for 10 days and measured after 12 days. In kind it is functional, organism-based. The note with it: dose 30-60 mg/kg, time 22.0 day.
Data set [9] concerns the target S-adenosylmethionine synthase isoform type-2 (Mus musculus) (UniProt Q3THS6). Kind of data set: Inhibition of MAT2A in MTAP null mouse B16-F10 cells assessed as reduction in SAM level measured for 4 hrs by immunoblotting analysis. The class given is cell-based. The following applies: dose <= 1.0 µM.
Data set [10] relates to B16-F10. Put plainly: Inhibition of MAT2A in MTAP knockout mouse B16-F10 cells assessed as reduction in SAM level measured for 4 hrs by immunoblotting analysis. In kind it is cell-based. The following applies: dose <= 1.0 µM.
In data set [11] the test system is B16-F10. Kind of data set: Antiproliferative activity against MTAP knockout mouse B16-F10 cells assessed as inhibition of cell viability measured for 96 hrs by SRB assay. In kind it is functional, cell-based. The note with it: B16-F10, 96 h.
Data set [12] in a line: AUC (0 to t) in male ICR mouse at 1 mg/kg, iv measured upto 36 hrs by LC-MS/MS analysis. In kind it is ADME, organism-based. The note with it: in vivo.
A short description of data set [13]: Half life in male ICR mouse at 1 mg/kg, iv measured upto 36 hrs by LC-MS/MS analysis. The following applies: in vivo. In kind it is ADME, organism-based.
Data set [14] deals with SF-126. Put plainly: Induction of DNA damage in MTAP knockout human SF-126 cells assessed as increase in gammaH2AX level at 0.1 to 10 uM measured for 96 hrs by Western blot analysis. In kind it is functional, cell-based. The following applies: dose 0.1-10 µM.
Data set [15] concerns Daoy. Put plainly: Antiproliferative activity against MTAP null human Daoy cells assessed as inhibition of cell viability measured for 96 hrs by SRB assay. The class given is functional, cell-based.
A short description of data set [16]: Kinetic solubility of compound in phosphate buffer at pH 7.4. The note with it: read-out: Kinetic_solubility. The class given is physicochemical.
The test system of data set [17] is B16-F10. Put plainly: Antitumor activity against MTAP-knockout mouse B16-F10 cells implanted in mouse assessed as reduction in tumor volume at 30 to 60 mg/kg, po administered for 10 days and measured after 12 days. The note with it: dose 30-60 mg/kg, time 22.0 day. In kind it is functional, organism-based.
The subject of data set [18] is B16-F10. Put plainly: Antiproliferative activity against mouse B16-F10 cells harboring MTAP D220A mutant assessed as inhibition of cell proliferation measured for 96 hrs by SRB assay. In kind it is functional, cell-based.
In data set [19] the target is Protein arginine N-methyltransferase 5 (Homo sapiens) (UniProt O14744). Kind of data set: Inhibition of PRMT5 in MTAP-null human MIA PaCa-2 cells incubated for 24 hrs by Western blot analysis. In kind it is cell-based.
Sequence of Protein arginine N-methyltransferase 5 (Homo sapiens) (O14744 whole entry): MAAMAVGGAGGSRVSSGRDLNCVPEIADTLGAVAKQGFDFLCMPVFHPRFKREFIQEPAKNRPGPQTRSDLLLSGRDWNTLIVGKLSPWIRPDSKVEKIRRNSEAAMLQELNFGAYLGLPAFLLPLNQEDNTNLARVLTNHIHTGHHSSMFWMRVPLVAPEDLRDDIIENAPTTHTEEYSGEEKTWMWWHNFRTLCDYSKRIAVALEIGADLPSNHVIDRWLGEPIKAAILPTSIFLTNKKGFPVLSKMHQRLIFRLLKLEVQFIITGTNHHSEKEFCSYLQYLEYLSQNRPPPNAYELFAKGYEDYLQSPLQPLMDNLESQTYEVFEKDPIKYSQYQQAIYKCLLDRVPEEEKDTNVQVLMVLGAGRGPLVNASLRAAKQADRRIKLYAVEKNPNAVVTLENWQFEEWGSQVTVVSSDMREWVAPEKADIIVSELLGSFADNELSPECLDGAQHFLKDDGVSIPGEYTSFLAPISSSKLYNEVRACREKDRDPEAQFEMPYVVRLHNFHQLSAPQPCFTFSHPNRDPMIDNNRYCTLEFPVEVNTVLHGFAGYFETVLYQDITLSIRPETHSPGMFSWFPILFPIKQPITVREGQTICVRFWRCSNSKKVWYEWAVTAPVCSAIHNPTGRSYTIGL

Sequence of S-adenosylmethionine synthase isoform type-2 (Mus musculus) (Q3THS6 whole entry, canonical isoform): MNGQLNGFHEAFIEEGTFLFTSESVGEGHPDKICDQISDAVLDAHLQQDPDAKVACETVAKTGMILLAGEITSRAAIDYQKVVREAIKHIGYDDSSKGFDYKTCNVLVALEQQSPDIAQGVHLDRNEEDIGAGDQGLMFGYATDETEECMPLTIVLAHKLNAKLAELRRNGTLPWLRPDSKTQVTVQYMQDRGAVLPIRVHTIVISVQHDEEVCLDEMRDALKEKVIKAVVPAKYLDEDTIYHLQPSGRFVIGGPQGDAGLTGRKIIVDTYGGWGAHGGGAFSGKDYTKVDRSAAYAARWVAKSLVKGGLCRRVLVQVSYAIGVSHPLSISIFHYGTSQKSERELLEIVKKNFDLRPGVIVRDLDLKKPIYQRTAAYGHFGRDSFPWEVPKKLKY

For `Cn1cnc2ccc(-c3nc4ccc(C5CC5)cc4n(-c4ccc(OC(F)F)cc4)c3=O)cc21`, the outcome in the data set on MDA-MB-231, in the data set with NCI-H1437, with Daoy [5], with SF-126 [6], with B16-F10 [8] and with SF-126 [14] was Active. For the same molecule, the outcome with Daoy [15] and with B16-F10 [17] was Active. For the same molecule, the figures for the Cmax in [1] and in data set [3] were 2600 ng/mL and 985 ng/mL, respectively. Further, in data set [2], the “Ratio IC50” value was over 57. The TGI entry with Daoy [4] was “Active”. Further, the area under the curve AUC(0-t) at 36 h in data set [7] was found to be 36500 ng·h/mL; in [12], 3100 ng·h/mL. For the same molecule, the inhibition entry in data set [9] and in [19] was “Active” each time. Also, the inhibition result in the data set on B16-F10 [10] was “Dose-dependent-effect”. The pIC50 with B16-F10 [11] is 6.37. In addition, in data set [13], the half-life was 8.43 h. The solubility kinetic in data set [16] was 3.11 µM (≈ 1.43 µg/mL). Moreover, the result in the data set on B16-F10 [18] was inactive.
